Here are results for 1 molecule from patent US20240082250A1, “NEDDYLATION INHIBITION FOR USE IN THE TREATMENT OF HUMAN IMMUNODEFICIENCY VIRUS (HIV) INFECTION” (priority 2022, published 2024).

Experiment [1] concerns Cullin RING Ligase (CRL^Vif)-mediated degradation of APOBEC3G (A3G). The following applies: ex vivo, de novo HIV infections; previously reported; cited from earlier work.
In another experiment the test system is PUMA, NOXA, p21, p53 RNA. Description: RT-qPCR for apoptotic targets and cell cycle indicators in primary CD4 T cells. It is filed as cell-based. To be noted: MLN. On the procedure:
(§1) ACH2 cells were pretreated for 6 hours with 200 nM MLN prior to provirus reactivation with 10 ng/mL TNFa. 16 hours post-TNFa addition cells were collected; apoptosis was measured via flow cytometry by staining for Annexin V and SYTOX Green DNA intercalant. […] Data was collected 24 hours after TNFa addition. (C) CD4+ T cells from 3 healthy donors were activated for 48 hrs with anti-CD3/CD28 antibodies. Cells were then treated with 200 nM of MLN and apoptosis was measured after 6, 16, and 24 hrs of drug treatment using flow cytometry. * p<0.05 *** p=0.0002 (D) Expression of RNA encoding cell cycling and apoptotic targets assessed before in ACH2 cells was determined in primary CD4 T cells via RT-qPCR. Gene expression was normalized to 18S control ** p=0.0033 **** p<0.0001 A&B) n=3 donors.
(§2) ACH2 cells were treated with 200 nM MLN for 6 hours before and then during reactivation with 10 ng/mL TNFa. 16 hours post-TNFa addition, cells were collected and percentage of apoptotic cells increased with MLN treatment upon reactivation (FIG. 8A).
On the technique in general: In qPCR the cycle at which signal appears reflects the starting amount.

In experiment [2] the test system is intracellular p24. Description: Intracellular p24 production in ACH2 cells exposed to LRAs. In kind it is cell-based, HIV. The following applies: ACH2 cells treated with TNFa (n=4), PMA/i (n=4), JQ1 (n=3); vs DMSO control. The source says:
(§3) (B) MLN reduces intracellular p24 production from J-Lat 6.3 cells exposed to TNFa, as well as from ACH2 cells exposed to TNFa. […] (C) Six hour treatment of J-Lat cells (both J-Lat 6.3 and J-Lat 11.1) with MLN before and during LRA exposure reduces HIV promoter-driven GFP expression after exposure to TNFa, PMAi and JQ1.
(§4) MLN decreases reactivation of latent provirus, as shown in VIF+, replication-competent provirus, from the latently infected ACH2 T cell line based on HIV capsid p24 amounts in cell culture supernatant fluid and intracellularly after 3 different LRAs: tumor necrosis factor alpha (TNFa) at 10 ng/mL; PMA/ionomycin (PMAi) at 405 pM phorbol 12-myristate 13-acetate (PMA) and 6.7 nM ionomycin (eBiosciences™ stimulation cocktail); and JQ1 at 100 nM (FIGS. 5 and 6). […] MLN reduces intracellular p24 production from ACH2 1 cells treated with TNFa, PMAi, and JQ1, compared to DMSO control (FIG. 6A). […] HIV promoter-driven RNA is also shown to be decreased by MLN before/during TNFa or PMAi (FIG. 7). […] ACH2 cells were pretreated for 6 hours with DMSO, or MLN at […], and then reactivated with 10 ng/mL TNFa or PMA/ionomycin.

For experiment [3], the system named is HIV promoter-driven GFP expression. As to the kind of experiment: HIV promoter-driven GFP expression in J-Lat 11.1 cells. In kind it is cell-based. The following applies: six hour MLN treatment before and during LRA exposure (TNFa, PMAi, JQ1).
Excerpt: as §3, §4

A further experiment has as its system ACH2 cells. As to the kind of experiment: Annexin V / SYTOX Green apoptosis flow cytometry in ACH2 cells. It is filed as cell-based. The following applies: 200 nM MLN 6 hours before and during 10 ng/mL TNFa, 16 hours post-TNFa. The method, then:
as §1, §2
On the technique in general: Flow cytometry measures light scatter and fluorescence of single cells or particles in a stream.

The test system of experiment [4] is intracellular p24. Description: Intracellular p24 production in J-Lat 6.3 cells exposed to TNFa. In kind it is cell-based, HIV.
Excerpt: as §3

In experiment [5] the test system is A3G. Description: A3G LMM/HMM distribution, sucrose density gradient and immunoblot, H9 cells. In kind it is cell-based. The following applies: 200 nM MLN for 4 or 6 days. The method, then: (§5) A3G low molecular mass forms (LMM) (fractions 1-5) and HMM complexes (fractions 7-12) are visualized by immunoblotting of fractions collected after density gradient centrifugation of a 5-40% sucrose gradient. […] (B) CD4+CD45RO+ memory T cells were isolated from healthy donors; cells were then stimulated with CD3/28 Abs (*) and cultured for 4 days with DMSO, 100 nM, or 200 nM MLN before density gradient centrifugation and immunoblotting of gradient fractions.

The next experiment deals with HIV. As to the kind of experiment: Infectivity of HIV reactivated from ACH2 cells, TZM-bl reporter cell luciferase assay. In kind it is cell-based. The following applies: ACH2 cells treated with MLN 100 nM or 200 nM before and during LRA (TNFa, PMAi, JQ1), vs DMSO, p24-normalized. On the procedure: (§6) (B) MLN treatment of ACH2 cells before and during TNFa provirus reactivation increases the amount of A3G incorporated into virions, a strong candidate mechanism for decreased infectivity shown in (A). Virions from ACH2 cell supernatant were pelleted over a 20% sucrose cushion. […] A3G signal (black bars) and p24 signal (grey bars) from n=3 experiments are quantified on the right (Panel 2 in B).
Virus infectivity was determined by infecting TZM-bl reporter cell line with p24-equivalent amounts of culture supernatant fluid (e.g., normalized to the same p24 amount, as a surrogate for inoculating the same number of virions) from cells pretreated with MLN or DMSO control and reactivated by the 3 LRAs). Supernatant infectivity was measured via luciferase activity in the form of […] (RFU) where higher RFU signifies greater infectivity. Average RFU values were normalized to the control condition (LRA alone without MLN treatment) such that maximum infectivity seen in that control condition is set to 100%.

Experiment [6] relates to HIV capsid antigen (p24). Description: Immunoblot of p24 in reactivated virions pelleted from J-Lat 6.3 supernatant. It is filed as cell-based. To be noted: LRA-exposed J-Lat 6.3 cells; MLN vs control. In general terms: Immunoblotting shows a protein as a band on a membrane.
For experiment [7], the system named is HIV capsid antigen (p24). As to the kind of experiment: Immunoblot of p24 in reactivated virions pelleted from ACH2 supernatant. It is filed as cell-based. The following applies: LRA-exposed ACH2 cells; MLN vs control. The method, then: as §4
In experiment [8] the test system is Cullin 2 (CUL2) neddylation. Description: Immunoblot for Cullin 2 (CUL2) neddylation in ACH2 cells. In kind it is cell-based. Also noted: dose or concentration left out as unconfirmed. The following applies: MLN, with and without TNFa reactivation.
Experiment [9] has as its system A3G incorporated into virions. As to the kind of experiment: Immunoblot of A3G in virions pelleted from ACH2 supernatant. It is filed as cell-based, HIV. To be noted: ACH2 cells; MLN before and during TNFa reactivation; immunoblot of viral pellets, n=3.
Excerpt: as §6
Virions from ACH2 cell supernatant were pelleted over a 20% sucrose cushion. […] A3G signal (black bars) and p24 signal (grey bars) from n=3 experiments are quantified on the right (Panel 2) in FIG. 3B.

A further experiment deals with HIV gag RNA. As to the kind of experiment: HIV gag RNA RT-qPCR in ACH2 cells. The following applies: MLN at before and during TNFa 10 ng/mL or PMA/ionomycin, 48 hours after reactivation, vs DMSO. It is filed as cell-based. On the procedure:
Gag RNA is reduced in ACH2 cells as measured by RT-qPCR 48 hours after reactivation. ACH2 cells were treated with either DMSO or MLN (at […]) before and during exposure to either 10 ng/mL TNFa (plot on left) or 405 pM PMA and 6.7 nM ionomycin (eBiosciences stimulation cocktail) (plot on right); 4 separate ACH2 cell cultures were used for each plot's experiment.
as §4

Experiment [10] relates to A3G. Description: A3G LMM/HMM distribution, sucrose density gradient and immunoblot, CD4+CD45RO+ memory T cells. To be noted: CD4+CD45RO+ memory T cells from healthy donors, CD3/28 stimulated; 4 days, 100 nM or 200 nM MLN vs DMSO. In kind it is cell-based. On the procedure:
as §5

The subject of a further experiment is NOXA, PUMA, p21, p53 RNA. As to the kind of experiment: RT-qPCR for apoptotic targets and cell cycle indicators in ACH2 cells. In kind it is cell-based. The following applies: 200 nM MLN before and during 10 ng/mL TNFa, 24 hours after TNFa. The method, then:
as §1, §2

The test system of a further experiment is primary CD4+ T cells. As to the kind of experiment: Apoptosis flow cytometry in anti-CD3/CD28-activated uninfected primary CD4+ T cells. In kind it is cell-based. The following applies: uninfected CD4+ T cells from 3 healthy donors, anti-CD3/CD28 activated 48 hrs; 200 nM MLN; at 16 hours. The method, then:
as §1, §2

In experiment [11] the test system is HIV promoter-driven GFP expression. As to the kind of experiment: HIV promoter-driven GFP expression in J-Lat 6.3 cells. To be noted: six hour MLN treatment before and during LRA exposure (TNFa, PMAi, JQ1). It is filed as cell-based.
Excerpt: as §3, §4

The test system of experiment [12] is HIV capsid antigen (p24). Description: Extracellular p24 ELISA of ACH2 culture supernatant after provirus reactivation. In kind it is cell-based. To be noted: ACH2 cells; MLN before and during LRAs (TNFa 10 ng/mL, PMA/i, JQ1), n=3 each. On the procedure:
as §4

Molecules are shown by their SMILES.

On to `NS(=O)(=O)OC[C@@H]1C[C@@H](n2ccc3c(N[C@H]4CCc5ccccc54)ncnc32)C[C@@H]1O` [MLN, pevonedistat], for which the “CRL^Vif-mediated degradation of APOBEC3G (A3G)” value in experiment [1] is “block”. In addition, the “p53 RNA expression” value with PUMA, NOXA, p21, p53 RNA is “did not significantly increase”; in the experiment on NOXA, PUMA, p21, p53 RNA, “does not increase”. Further, the “NOXA gene expression (RT-qPCR)” value in the experiment on PUMA, NOXA, p21, p53 RNA (normalized to 18S) is “increase”. Besides, the “PUMA gene expression (RT-qPCR)” value in the experiment with PUMA, NOXA, p21, p53 RNA (normalized to 18S) is on record as “increase”. The “p21 expression (RT-qPCR)” value in the experiment with PUMA, NOXA, p21, p53 RNA (normalized to 18S) is recorded as “increase”. Moreover, the “intracellular p24 production” value is on record as “significantly reduces” in the experiment on intracellular p24 [2] and “reduces” with intracellular p24 [4]. Moreover, the “HIV promoter-driven GFP expression” value in experiment [3] and in experiment [11] was “reduces” throughout. In addition, in the experiment with ACH2 cells, the “percentage of cells dying from apoptosis (Annexin V)” value is given as “increases”. In addition, the “intracellular distribution of A3G (LMM form vs HMM complexes)” value with A3G [5] and in the experiment on A3G [10] was “shift to LMM form” each time. For the same molecule, the “infectivity of HIV in culture supernatant fluid” value in the experiment with HIV was “less infectious”. Also, the “p24 antigen in pelleted reactivated virions (immunoblot)” value in the experiment on HIV capsid antigen (p24) [6] and with HIV capsid antigen (p24) [7] was “reduced” each time. The “Cullin 2 (CUL2) neddylation” value in [8] is “inhibits”. The “amount of A3G incorporated into virions” value in experiment [9] is reported as “increases”. Moreover, in the experiment on HIV gag RNA, the “HIV gag RNA expression (RT-qPCR)” value was “reduced”. The “relative expression of RNA encoding NOXA” value with NOXA, PUMA, p21, p53 RNA is “increased”. For the same molecule, the “relative expression of RNA encoding PUMA” value in the experiment with NOXA, PUMA, p21, p53 RNA is listed as “increased”. Moreover, the “relative expression of RNA encoding p21” value in the experiment on NOXA, PUMA, p21, p53 RNA was “increased”. In addition, in the experiment with primary CD4+ T cells, the “apoptosis-mediated cell death (Annexin V)” value is listed as “increase”. In the experiment on HIV capsid antigen (p24) [12], the “extracellular p24 antigen in culture supernatant fluid (ELISA)” value is reported as “significantly reduced”.
